{"source": "patent US8207227B2", "about": "“Disodium salts, monohydrates, and ethanol solvates for delivering active agents” (Emisphere Technologies, Inc., priority 1999, dated 2012)", "key": {"[1]": {"test": "Oral delivery of low molecular weight heparin (LMWH) with SNAD salts; plasma heparin by anti-Factor Xa assay", "format": "in vivo, Sprague-Dawley rats", "conditions": "rats, 3 ml/kg, compound 300 mg/kg, LMWH dose 3000 (mg/kg)", "method": "The typical dosing and sampling protocols were as follows. Male Sprague-Dawley rats weighing between 275-350 g were fasted for 24 hours and were anesthetized with ketamine hydrochloride (about 88 mg/kg) intramuscularly immediately prior to dosing and again as needed to maintain anesthesia. A dosing group of ten rats was administered one of the dosing solutions. An 11 cm Rusch 8 French catheter was adapted to a 1 ml syringe with a pipette tip. The syringe was filled with dosing solution by drawing the solution through the catheter, which was then wiped dry. The catheter was placed down the esophagus leaving 1 cm of tubing past the incisors. Solution was administered by pressing the syringe plunger.\nOral dosing (PO) compositions containing low molecular weight heparin (LMWH) and either the mono-sodium or di-sodium salt form of the delivery agent compound SNAD were prepared in water. […]\nCitrated blood samples were collected by cardiac puncture 0.5, 1.0, 2.0, 3.0 and 4.0 hours after administration. Heparin absorption was verified by an increase in plasma heparin measured by the anti-Factor Xa assay CHROMOSTRATE® Heparin anti-Xa assay, available from Organon Teknika Corporation of Durham, N.C. Baseline values were determined earlier and found to be about zero IU/ml. […]"}, "[2]": {"test": "Oral delivery of heparin with SNAD salts; plasma heparin by anti-Factor Xa assay", "format": "in vivo, cynomolgus macaque monkeys", "conditions": "cynomolgus monkeys, about 150 mg/kg delivery agent and 30 mg/kg heparin", "method": "The dose for each monkey was about 150 mg/kg of the disodium SNAD ethanol solvate and about 30 mg/kg of heparin. The dosing protocol for administering the capsules to each animal was as follows. […] Water was available throughout the dosing period and 400 ml juice was made available to the animal overnight prior to dosing and throughout the dosing period. The animal was restrained in a sling restraint. A capsule was placed into a “pill gun”, which is a plastic tool with a cocked plunger and split rubber tip to accommodate a capsule. The pill gun was inserted into the esophagus of the animal. The plunger of the pill gun was pressed to push the capsule out of the rubber tip into the esophagus. The pill gun was then retracted. The animal's mouth was held closed and approximately 5 ml reverse osmosis water was administered into the mouth from the side to induce a swallowing reflex. The throat of the animal was rubbed further to induce the swallowing reflex. […] Blood was added to fill the tube to the 1.3 ml line. The tube was then placed on wet ice pending centrifugation. […] Plasma heparin concentrations were determined using the anti-Factor Xa assay CHROMOSTRATE™ heparin anti-Xa assay, available from Organon Teknika Corporation of Durham, N.C. Results from the animals were averaged for each time point. […] Two tablets were dosed to each of approximately 4.0 kg monkeys. […]"}, "[3]": {"test": "Oral delivery of sCT/sodium salt of 5-CNAC in rats; serum sCT by EIA kit, modified protocol", "format": "in vivo, Sprague-Dawley rats", "conditions": "subcutaneous, sCT 5 mg/kg (so in the source), no delivery agent", "method": "The rats were administered one of the following: • (4a) orally, one capsule of 13 mg lyophilized powder as prepared as in Example 19 with 0.5 ml of water to flush the capsule down; • (4b) orally, 1.0 ml/kg of a reconstituted aqueous solution of the lyophilized powder prepared in Example 19; • (4c) orally, 1.0 ml/kg of “fresh”, unlyophilized aqueous solution of 5-CNAC sodium salt as prepared in Example 20 with sCT; or • (4d) subcutaneously, 5 mg/kg of sCT.\nDoses (4a), (4b) and (4c) contained 50 mg/kg of the sodium salt of 5-CNAC and […] of sCT. Doses for (4a) are approximate because the animals were given one capsule filled with the stated amount of powder based on an average animal weight of 250 g, whereas actual animal weight varied. This is also the case in all later examples where a capsule is dosed.\nThe reconstituted solution for (4b) was prepared by mixing 150 mg of the lyophilized powder prepared as in Example 19 in 3 ml of water. The reconstituted solution was dosed at […].\nThe subcutaneous doses were prepared by dissolving 2 mg of sCT in 1 ml water. […]. This solution was dosed at 0.5 ml/kg.\nBlood samples were collected serially from the tail artery. […]"}, "clotting time (APTT)": {"test_system": "clotting time (APTT)", "test": "Oral delivery of heparin with SNAC salts; clotting time by activated partial thromboplastin time (APTT)", "format": "in vivo, Sprague-Dawley rats", "conditions": "rats, oral gavage, 3 ml/kg, compound 300 mg/kg, heparin 100 mg/kg; baseline about 20 seconds", "method": "Oral gavage (PO) dosing solutions containing heparin sodium USP and either the mono-sodium or di-sodium salt form of the delivery agent compound SNAC were prepared in water. The delivery agent compound and heparin (166.9 IU/mg) were mixed by vortex as dry powders. This dry mixture was dissolved in water, vortexed and sonicated at about 37° C. to produce a clear solution. The pH was not adjusted. The final volume was adjusted to about 10.0 ml. The final delivery agent compound dose, heparin dose and dose volume amounts are listed below in Table 2 below.\nThe typical dosing and sampling protocols were as follows. […]\nCitrated blood samples were collected by cardiac puncture 0.25, 0.5, 1.0 and 1.5 hours after administration. Heparin absorption was verified by an increase in clotting time as measured by the activated partial thromboplastin time (APTT) according to the method of Henry, J. B., Clinical Diagnosis and Management by Laboratory Methods, Philadelphia, Pa., W.B. Saunders (1979). […] Heparin absorption was also verified by an increase in plasma heparin measured by the anti-Factor Xa assay CHROMOSTRATE® Heparin anti-Xa assay, available from Organon Teknika Corporation of Durham, N.C. […]"}, "[4]": {"test": "Oral delivery of heparin with SNAC salts; plasma heparin by anti-Factor Xa assay", "format": "in vivo, Sprague-Dawley rats", "conditions": "rats, oral gavage, 3 ml/kg, compound 300 mg/kg, heparin 100 mg/kg", "method": "The typical dosing and sampling protocols were as follows. […] The syringe was filled with dosing solution by drawing the solution through the catheter, which was then wiped dry. The catheter was placed down the esophagus leaving 1 cm of tubing past the incisors. Solution was administered by pressing the syringe plunger."}}, "data": [{"compound": "O=C([O-])CCCCCCCCCNC(=O)c1ccccc1O.[Na+]", "note": "[monosodium salt of SNAD, Monosodium N-(10-[2-hydroxybenzoyl]amino)decanoate]", "values": [{"measurement": "Mean Peak Plasma Heparin Concentration (IU/ml) ± SE", "setting": "[1]", "result": "0.88 ± 0.17", "unit": "IU/ml"}, {"measurement": "Time after administration at which maximum averaged plasma heparin was reached", "setting": "[2]", "result": 2, "unit": "h"}, {"measurement": "Maximum averaged plasma heparin concentration", "setting": "[2]; two capsules or two tablets", "result": "0.23±0.19", "unit": "IU/mL"}]}, {"compound": "CC(C)C[C@H](NC(=O)[C@H](CCCCN)NC(=O)CNC(=O)[C@H](CC(C)C)NC(=O)[C@@H](NC(=O)[C@@H]1CSSC[C@H](N)C(=O)N[C@@H](CO)C(=O)N[C@@H](CC(N)=O)C(=O)N[C@@H](CC(C)C)C(=O)N[C@@H](CO)C(=O)N[C@@H]([C@@H](C)O)C(=O)N1)C(C)C)C(=O)N[C@@H](CO)C(=O)N[C@@H](CCC(N)=O)C(=O)N[C@@H](CCC(=O)O)C(=O)N[C@@H](CC(C)C)C(=O)N[C@@H](Cc1c[nH]cn1)C(=O)N[C@@H](CCCCN)C(=O)N[C@@H](CC(C)C)C(=O)N[C@@H](CCC(N)=O)C(=O)N[C@H](C(=O)N[C@@H](Cc1ccc(O)cc1)C(=O)N1CCC[C@H]1C(=O)N[C@@H](CCCNC(=N)N)C(=O)N[C@H](C(=O)N[C@@H](CC(N)=O)C(=O)N[C@H](C(=O)NCC(=O)N[C@@H](CO)C(=O)NCC(=O)N[C@H](C(=O)N1CCC[C@H]1C(N)=O)[C@@H](C)O)[C@@H](C)O)[C@@H](C)O)[C@@H](C)O", "note": "[(4d) subcutaneous, salmon calcitonin]", "values": [{"measurement": "Mean Peak Serum sCT ± SD", "setting": "[3]; Table 5, rats", "result": "965 ± 848", "unit": "pg/mL"}, {"measurement": "Mean Peak Serum sCT ± SD", "setting": "[3]; Table 6, rats", "result": "273 ± 320", "unit": "pg/mL"}]}, {"compound": "O=C([O-])CCCCCCCCCNC(=O)c1ccccc1[O-].[Na+].[Na+]", "note": "[SNAD-di]", "values": [{"measurement": "Mean Peak Plasma Heparin Concentration (IU/ml) ± SE", "setting": "[1]", "result": "1.21 ± 0.15", "unit": "IU/ml"}]}, {"compound": "Mono-Sodium N-(8-[(2-hydroxybenzoyl]amino)caprylate [SNAC - mono]", "values": [{"measurement": "Mean Peak APTT (sec) ± SE", "setting": "clotting time (APTT)", "result": "247 ± 28.5", "unit": "s"}]}, {"compound": "O=C([O-])CCCCCCCNC(=O)c1ccccc1[O-].[Na+].[Na+]", "note": "[SNAC - di]", "values": [{"measurement": "Mean Peak APTT (sec) ± SE", "setting": "clotting time (APTT)", "result": "300 ± 0", "unit": "s"}, {"measurement": "Mean Peak Factor Xa (IU · ml) ± SE", "setting": "[4]", "result": "2.81 ± 0.17", "unit": "IU · ml"}]}]}
